Values of other authors in US20240115517A1, “COMPOSITIONS AND METHODS FOR IMPROVING SKIN BARRIER” (LYCORED LTD., priority 0001, published 2024).

Tests used:
[1] = 4 mg/day, 9 weeks

In the case of `CC1=C(/C=C/C(C)=C/C=C/C(C)=C/C=C/C=C(C)/C=C/C=C(C)/C=C/C2=C(C)C(=O)[C@@H](O)CC2(C)C)C(C)(C)C[C@H](O)C1=O` [astaxanthin, Astaxanthin], the “TEWL compared to controls” value (36 male subjects; 6 mg per day, 6 weeks) is listed as “significantly reduced”, the “minor wrinkles, age spot size, elasticity, hydration” value (36 male subjects; astaxanthin supplementation) is listed as “improvements” and the “minimal erythema dose of UV” value [1] is listed as “increase”. The “increase of TEWL at the site of irradiation versus control group” value ([1]; after UV irradiation) was “significantly less”.
